Data on 3 compounds can be found in patent publication US10201165B2 (Board of Trustees of Michigan State University, priority 2014, dated 2019).

Where two headings read alike, the source gives them in different places.

In experiment [1] the test system is fungi. The conditions noted are these: compound tentatively assigned to HPLC-MS peak around 255 g/mol; cited from earlier work.
In experiment [2] the test system is Cladosporium cucumerinum. Put plainly: TLC bioassay for detection of antimicrobial activity. In kind it is cell-based. The conditions noted are these: FIG. 3, white areas. As to the method:
A TLC-bioassay of extract from Prunus maackii, P. serotina, and P. mahelab was conducted using three different extraction methods. Periderm tissue was extracted in 80% acetone, in hot water, or in water in an autoclave. Extracts were tested for antimicrobial activity by a thin layer chromatography bioassay on cellulose TLC plates. Samples were separated with, and the plates were developed in, water.
For the TLC bioassay for the detection of antimicrobial activity, 5 μL of the samples (column fractions, suspended in 80% methanol) were applied to Analtech® silica gel (TLC) plates and were developed in a TLC tank (30×20×10 cm) using 100 mL of chloroform:methanol (8.5:1, v/v). Within 24 hours of developing the TLC plates, the plates were evenly sprayed with a dense fungal suspension of C. cucumerinum in ½ strength potato-dextrose broth and then placed in a moist incubation chamber for three days to allow fungal growth.

Experiment [3] relates to fungi. Briefly: Antifungal activity (test not specified). The settings on record: compound identified from leaves of Prunus maackii.

With `O=C1C[C@@H](c2ccccc2)Oc2cc(O)cc(O)c21` [pinocembrin], the Antifungal activity entry in experiment [1] is on record as “antifungal activity”. As to `COc1c(O)cc2oc(-c3ccccc3)c(O)c(=O)c2c1O` [alnusin, 3,5,7-trihydroxy-6-methoxyflavone], in experiment [2], the “Fungal inhibition on TLC plate by isolated compounds” value was “fungal inhibition”.

On to `COc1c(O)cc(O)c2c1OC(c1ccccc1)CC2=O` (stereo not drawn) [Dihydrowogonin, 5,7-dihydroxy-8-methoxy-2-phenyl-2,3-dihydrochromen-4-one], for which the Antifungal activity entry in experiment [3] was “antifungal activity”.
